Measured values taken from patent publication US6716819B2, “Use of xylitol to reduce ionic strength and activate endogenous antimicrobials for prevention and treatment of infections” (University of Iowa Research Foundation, priority 2000, dated 2004).

Columns and labels:
non-CF epithelia = assay: ASL Cl- concentration and volume (isotope method); assay type: cell-based, human
Experimental: FIGS. 3(A-B). The effect of apical xylitol on non-CF and CF ASL Cl^− concentration and volume. Five μl of isosmotic xylitol or saline solution were applied to the apical surface. Twenty-four hours later, ASL Cl^− concentration (A) and volume (B) were determined. Asterisk indicates a difference between the saline and the xylitol solutions, p<0.05. N=15 to 18 from 3 CF and 3 non-CF specimens.
Airway epithelial cells were isolated from tracheal and bronchial tissue. […] All epithelia were evaluated with scanning electron microscopy for the development of a ciliated apical surface.
The ASL Cl^− concentration was measured as previously described (Zabner, J., J. J. Smith, P. H. Karp, J. H. Widdicombe, and M. J. Welsh. 1998. Loss of CFTR chloride channels alters salt absorption by cystic fibrosis airway epithelia in vitro. Mol. Cell. 2:397-403). […] The ratio of ^36Cl to ^3H2O was determined by liquid scintillation. […] From these measurements, it was determined the ^3H2O activity per μl of water and the cpm of ^36Cl per mole of Cl^− in the basolateral medium. ASL volume was calculated from the ASL ^3H2O collected divided by the ratio of ^3H2O activity per μl of basolateral medium. Chloride content was calculated from the ASL ^36Cl collected divided by the ratio of ^36Cl per mole of Cl^− in the basolateral medium ASL Cl^− concentration was calculated from the Cl^− content divided by the volume of ASL. […]

P. aeruginosa = assay: Growth in carbon-starved M9 media (O.D.); assay type: cell-based; conditions: M9 media supplemented at 100 mM
Experimental: (§1) FIGS. 5(A-G). […] A, B and C. Growth of P. aeruginosa (A), S. aureus, (B), and coagulase-negative Staphylococcus (C) were measured as O. D. M9 media alone is indicated by open triangle. Xylitol (closed circle), or succinate, mannitol, or sucrose (open circles), were added to M9 media at 100 mM as indicated. D. Nasal swabs were collected and cultured for 3 days in Lauria-Bertani media (open circles), in minimal M9 media (open squares), or in M9 media supplemented with 100 mM xylitol (closed circles). E, F and G. P. aeruginosa (E), S. aureus (F), and coagulase-negative Staphylococcus (G) were cultured in Lauria-Bertani media alone (open triangles), Lauria-Bertani media with 100 mM xylitol (closed circles), and Lauria-Bertani media containing tobramycin or levofloxacin (open circles).
(§2) To test the effect of xylitol on growth of different airway pathogens in a carbon-starved media, P. aeruginosa, S. aureus, and coagulase-negative Staphylococcus were grown overnight in Lauria-Bertani medium. The bacteria were then centrifuged and resuspended in M9 media containing either 100 mM succinate, mannitol, or sucrose, respectively, and grown overnight at 37° C. The bacteria were centrifuged and resuspended in M9 media alone. M9 media containing 100 mM xylitol, or 100 mM of the indicated metabolizable sugar, as positive control. The optical density (O.D.) was measured after 0, 1, 2, and 4 hours at 600 nm on a Beckman DU640 Spectrophotometer (Schaumburg, Ill.). To test the antibiotic effect of xylitol, P. aeruginosa, S. aureus, and coagulase-negative Staphylococcus were grown overnight in Lauria-Bertani medium. The bacteria were then centrifuged and resuspended in Lauria-Bertani media with and without 100 mM xylitol. As a positive control, antibiotics with specific activity to each of the bacteria were added to the media (40 μg/ml tobramycin or 40 μg/ml levofloxacin).

[1] = system: coagulase-negative Staphylococcus; assay: Growth in carbon-starved M9 media (O.D.); assay type: cell-based; conditions: M9 media supplemented at 100 mM
Experimental: as §1, §2

[2] = system: coagulase-negative Staphylococcus
Excerpt: Effect of xylitol administration to nasal mucosa on coagulase-negative Staphylococcus.
Subjects were over 18 years old. […] Twenty-one normal healthy subjects (10 male and 11 female, age 20 to 52 years) participated.
The design was a double-blind, randomized, cross-over study. Subjects were randomized to one of two groups: xylitol followed by saline or saline followed by xylitol. A culture of both anterior nares was obtained on day zero. Then subjects sprayed each nostril with a prefilled syringe of solution 4 times per day for 4 days. On the morning of day 5, subjects did their final application at breakfast time, then a nasal swab was obtained 2 hours later. No treatment was administered for the next 7 days. Subjects then repeated the protocol with the opposite solution. The saline solution was 0.9% NaCl in water (Baxter Health Care Corp., Deerfield, Ill.). The xylitol solution was 5% xylitol (304 mM) in water. The solutions were nebulized using an Accuspray syringe (Becton Dickinson Pharmaceutical Systems, Franklin Lakes, N.J.), containing 250 μl of solution. The xylitol and saline syringes were identical. The mass medium diameter of particles was ˜60 μm. It was impossible to disguise the sweet taste of xylitol.
Samples for cultures were obtained with sterile rayon swabs (Culturette Collection and Transport System, Becton Dickinson Microbiology Systems, Sparks, Md.). […] The plates were incubated at 37° C. for 24 hours and the colonies of coagulase-negative Staphylococcus colonies were identified and counted using a Cling-On Grid (Spiral Biotech, Bethesda, Md.). […]
A randomized, double-blind, cross-over study was performed. The nasal mucosa was swabbed and the number of coagulase-negative Staphylococcus was determined by culture. […] After 4 days, the number of nasal coagulase-negative Staphylococcus was counted again. […]
Analysis of variance for a cross-over design was applied on the change in bacterial count from pretreatment to post treatment. […] Thus, the comparison of xylitol vs. saline was evaluated from the data of both nostrils and both sequences.

[3] = cited from earlier work

For `OC[C@@H](O)[C@H](O)[C@@H](O)CO` [xylitol], the “estimated ASL volume” value (non-CF epithelia; 24 hours after 5 μl apical) was “increased”, the “ASL Cl- concentration” value (non-CF epithelia; 24 hours after 5 μl isosmotic xylitol solution apical) was 34.2 ± 4.3 mM and the “growth of P. aeruginosa” value (P. aeruginosa) was “no growth”. The “growth of coagulase-negative Staphylococcus” value [1] was “failed to support growth”, the “adverse effects reported by subjects” value ([2]; in vivo) was “none of the subjects tested reported adverse effects” and the “median change in coagulase-negative Staphylococcus count” value ([2]; normal subjects, nasal spray 4 times a day for 4 days, interquartile range in brackets) was 500 (interquartile range of 1152 to 120) cfu. For the same compound, the “average reduction of coagulase-negative Staphylococcus in treated nostrils” value ([2]; normal subjects, nasal spray 250 μl per nostril 4 times a day for 4 days, p=0.05 vs saline) was 597±242 cfu, the “toxicity observed after intravenous delivery” value ([3]; 5-50% solution in water at 1-4.5 g/Kg intravenously, changes reversible) was “increases in serum uric acid and elevated liver enzymes” and the “adverse effect in children” value ([3]; delivered in large amounts) was “osmotic diarrhea”.
